Key:
[1] = tested on: target genes of the PPARs; experiment: Expression of PPARδ target genes in skeletal muscle of the C57Bl6 mouse (compounds 4 and 7), quantitative RT-PCR; format: in vivo; conditions: C57Bl6 mice; 50 mpk; 14 days
Text: The PPARδ agonistic properties of the molecules according to the invention previously measured in vitro should be reflected at the level of the skeletal muscle in overexpression of the target genes directly under the control of the PPARδ receptor: the genes that were investigated in this experiment are the genes coding for PDK4 (enzyme of carbohydrate metabolism), CPT1b (enzyme of lipid metabolism), UCP2 and UCP3 (mitochondrial transporters involved in thermoregulation).
(§1) Female C57Bl6 mice were kept under a cycle of light and darkness of 12/12 hours at a constant temperature of 20±3° C. After acclimation for one week, the mice were weighed and put into groups of 6 animals selected so that the distribution of their body weight, of their plasma lipid levels and of total cholesterol determined for the first time before the experiment, is uniform. The test compounds were suspended in carboxymethylcellulose (Sigma C4888) and administered by intragastric force feeding, at a rate of once per day for 14 days at the chosen dose. The animals had free access to water and to food (standard diet). At the end of the experiment, the animals were anesthetized after fasting for 4 hours, a blood sample was taken using anticoagulant (EDTA), then the mice were weighed and euthanased. The plasma was separated by centrifugation at 3000 rev/min for 20 minutes, and the samples were stored at +4° C.
Samples of skeletal muscle tissue were taken and frozen immediately in liquid nitrogen and then stored at −80° C. for later analyses.
The total RNA was extracted from fragments of gastrocnemius skeletal muscle using the RNeasy® Fibrous Tissue kit (Qiagen) following the manufacturer's instructions.
(§2) 1 μg of total RNA (quantified based on the spectrophotometer reading) was then reverse-transcribed to complementary DNA by reaction for 1 hour at 37° C. in a total volume of 30 μl containing buffer 1× (Invitrogen), 1.5 mM of DTT, 0.18 mM of dNTPs (Promega), 200 ng of pdN6 (Amersham), 30 U of RNase inhibitor (Promega) and 1 μl of MMLV-RT (Invitrogen).
(§3) The quantitative PCR experiments were carried out using the MyiQ Single-Color Real-Time PCR Detection System (Biorad, Marnes-la-Coquette, France) and were performed using the iQ SYBR Green Supermix kit following the supplier's recommendations, in 96-well plates, on 5 μl of diluted reverse transcription reaction mixture with a hybridization temperature of 60° C. Primer pairs specific to the genes under investigation were used:
The amount of fluorescence emitted is directly proportional to the amount of complementary DNA present at the start of the reaction and amplified during PCR. For each target investigated, a range is produced by successive dilutions of a pool constituted of a few microliters of various reverse transcription reaction mixtures. The relative expression levels of each target are thus determined using the efficacy curves obtained with the points in the range.
The levels of expression of the genes of interest were then normalized relative to the level of expression of the reference gene 18S (whose specific primers are: […]
The induction factor, i.e. the ratio of the relative signal (induced by the compound according to the invention) to the mean of the relative values of the control group, was then calculated for each sample. The higher this factor, the greater the gene expression activating character of the compound. The final result is represented as the mean of the induction values in each experimental group.

[2] = tested on: target genes of the PPARs; experiment: Expression of target genes of the PPARs in liver and skeletal muscle of the E2/E2 mouse, quantitative RT-PCR; format: in vivo; conditions: 50 mpk, 13 days
Text: The PPARα agonistic properties of the molecules according to the invention previously measured in vitro must be reflected at the hepatic level in a modulation of the expression of the target genes directly under the control of the PPARα receptor. The genes that were investigated in this experiment are the genes coding for PDK4 (pyruvate dehydrogenase kinase isoform 4, enzyme of carbohydrate metabolism), for AcoX1 (the AcoX1 present in the mouse corresponds to the gene of ACO in humans (acyl co-enzyme A oxidase, a key enzyme in the mechanism of the β-oxidation of fatty acids)) and for Apo CIII (an apolipoprotein involved in lipid metabolism).
The PPARδ agonistic properties of the molecules according to the invention previously measured in vitro should also be reflected, at the level of the skeletal muscle, in overexpression of the target genes directly under the control of the PPARδ receptor. The genes that were investigated in this experiment are the genes coding for PDK4 (pyruvate dehydrogenase kinase isoform 4, enzyme of carbohydrate metabolism) and UCP2 (uncoupling protein 2, mitochondrial transporter involved in thermoregulation).
as §1, with “Apo E2/E2 transgenic” for “Female C57Bl6”, “weights and” for “weight,”, “levels” for “levels and of total cholesterol”, “experiment are” for “experiment, is”, “13” for “14”
Samples of liver and of skeletal muscle tissue were taken and frozen immediately in liquid nitrogen and then stored at −80° C. for later analyses.
The total RNA was extracted from fragments of liver using the NucleoSpin® 96 RNA kit (Macherey Nagel, Hoerdt, France) following the manufacturer's instructions. […]
as §2, with “by spectrophotometry)” for “based on the spectrophotometer reading)”
as §3, with “Primer pairs specific to the genes under investigation were used:” left out
In both cases (hepatic tissue and skeletal muscle tissue), the amount of fluorescence emitted is directly proportional to the amount of complementary DNA present at the start of the reaction and amplified during PCR. […] The relative expression levels of each target are thus determined using the efficacy curves obtained with the points in the range. […]

Row | SMILES | expression of the gene coding for CPT1b in skeletal muscle [1] | expression of the gene coding for PDK4 in skeletal muscle [1] | expression of the gene coding for UCP2 in skeletal muscle [1] | expression of the gene coding for UCP3 in skeletal muscle [1] | hepatic expression of the gene coding for AcoX1 ([2]; liver) | hepatic expression of the gene coding for ApoCIII ([2]; liver) | hepatic expression of the gene coding for PDK4 ([2]; liver) | expression of the gene coding for PDK4 in the skeletal muscle ([2]; skeletal muscle) | expression of the gene coding for UCP2 in the skeletal muscle ([2]; skeletal muscle)
1 | CC(C)(Oc1ccc(CCC(OCc2ccccc2)c2ccc(-c3ccc(C(F)(F)F)cc3)s2)c(Cl)c1Cl)C(=O)O (stereo not shown) [Compound 7, 2-(4-(3-(benzyloxy)-3-(5-(4-(trifluoromethyl)phenyl)thien-2-yl)propyl)-2,3-dichlorophenoxy)-2-methylpropanoic acid] | significant increase | significant increase | significant increase | significant increase | – | – | – | – | –
2 | CC(C)(Oc1ccc(CCC(O)c2ccc(-c3ccc(C(F)(F)F)cc3)s2)c(Cl)c1Cl)C(=O)O (stereo not shown) [Compound 4, 2-(2,3-dichloro-4-(3-hydroxy-3-(5-(4-(trifluoromethyl)phenyl)thien-2-yl)propyl)phenoxy)-2-methylpropanoic acid] | significant increase | significant increase | significant increase | significant increase | – | – | – | – | –
3 | CC(C)(Oc1ccc(CCC(=O)c2ccc(-c3ccc(C(F)(F)F)cc3)s2)c(Cl)c1Cl)C(=O)O [Compound 2, 2-(2,3-dichloro-4-(3-oxo-3-(5-(4-(trifluoromethyl)phenyl)thien-2-yl)propyl)phenoxy)-2-methylpropanoic acid] | – | – | – | – | significant increase | decrease | significant increase | significant increase | significant increase

— patent US8088819B2, “Derivatives of substituted 3-phenyl-1-(phenylthienyl)propan-1-ones and of 3-phenyl-1-(phenylfuranyl) propan-1-ones, preparation and use” (priority 2006, dated 2012)
